# Changes are numbered by the printed parent chain. In names and notes the source's numbering stands.
# B1: Mutant 17 R63W R74Y: R63W R74Y mutant of codon optimised cytochrome SriC12, SEQ ID NO: 251 (protein)
# chain: MTEALPFPQDRTCPYDPPAGYQPLRDSRPLSRVTLYDGRPAWVVTGHAESRALLTDPRLSADWQNPAFPSPAPYFETLRKVRTPLLGVDDPEHNTQRRMLIPSFSVKRAAALRPRIQEIVDRLLDAMEQQGPPAELVSAFALPVPSMVICALLGVPYADHELFEGLSRTLLQSADPQEVTEARDKLEDYFTALVERKRKEPGDGLLDELIAERLDSGELGHRELVRMAMLLLVAGHETTSNMLSLGTFTLLEHPEQFAALRADPSLLPAAVEELLRFLSIADGMVRVATEDIEIGGVTIRADDGVIFSTSVVNRDGAAYASPDTLDWERSARHHVAFGFGVHQCLGQNLARAEMEIAFGALFARFPGLRLAVPAAEIPVKPAHALQGLVELPVTW
# modifications: R63W R74Y mutant of SriC12
# B2: Mutant 18 R63W L171A: R63W L171A mutant of codon optimised cytochrome SriC12, SEQ ID NO: 253 (protein)
# chain: B1 chain with Y74R, L171A
# modifications: R63W L171A mutant of SriC12
# B3: Mutant 22 R63W R74Y L171A: R63W R74Y L171A mutant of codon optimised cytochrome SriC12, SEQ ID NO: 257 (protein)
# chain: B1 chain with L171A
# modifications: R63W R74Y L171A mutant of SriC12
# B4: Mutant 1 R63W: R63W mutant of codon optimised cytochrome SriC12, SEQ ID NO: 231 (protein)
# chain: B1 chain with Y74R
# modifications: R63W mutant of SriC12
# B5: Mutant 2 R63Y: R63Y mutant of codon optimised cytochrome SriC12, SEQ ID NO: 233 (protein)
# chain: B1 chain with W63Y, Y74R
# modifications: R63Y mutant of SriC12
# B6: Mutant 20 R74Y L171A R183W: R74Y L171A R183W mutant of codon optimised cytochrome SriC12, SEQ ID NO: 255 (protein)
# chain: B1 chain with W63R, L171A, R183W
# modifications: R74Y L171A R183W mutant of SriC12
# Experiments:
# [1] = test system: native codon optimised P450SriC12; test: Cell-free hydroxylase/dealkylase assay, lyophilised extract incubated with bosentan, UPLC-MS; assay type: biochemical, Streptomyces rimosus NRRL-2234; conditions: 0.1 mg/ml bosentan, 27° C., 16-20 hours
# Description: (§1) Lyophilised material of recombinant P450, ferredoxin and ferredoxin reductase proteins was made as described in Example 3 and reconstituted in high purity water to 90% the original volume. Biocatalysis was performed at 27° C. in the following conditions: 50 mM potassium phosphate pH 7.4, 5 mM MgCl2, 0.1 mg/ml substrate compound such as bosentan, cyclosporine A, diclofenac, ritonavir, tivantinib, valsartan or vanoxerine, native concentration of P450, ferredoxin and ferredoxin reductase as extracted (Example 3). Reactions were initiated by addition of 10× stock of cofactor mixture (50 mM G6P, 10 mM NADP, 10 UN/ml G6PDH) to provide a final volume of e.g., 100 μL. After 16-20 hours, reactions were extracted with an equal volume of acetonitrile, centrifuged to remove precipitated proteins and conversion assessed by UPLC-MS analysis.
# (§2) Acidic Analysis Conditions • Column: Acquity UPLC BEH Shield RP18 1.7 μm 2.1 mm i.d. 50 mm length • Column temperature: 45° C. • Solvents: H2O, B: Acetonitrile, both with 0.1% Formic acid • Flow rate: 1.0 ml/min • Gradient (A9%/B %): t=0 mins: 98/2 to 2/98 at t=2.4 mins and held for a further 0.4 mins (2.8 mins total), return to 98/2 over 0.05 mins and re-equilibrated for 0.15 mins (t=3 mins) at a flow-rate of 1.0 mL/min.
# (§3) Basic Analysis Conditions • Column: Waters Acquity UPLC BEH C18 1.7 μm 2.1 mm i.d. 50 mm length • Column temperature: 45° C. • Solvents: A: 10 mM ammonium bicarbonate in H2O, B: Acetonitrile • Gradient (A %/B %): t=0 mins: 98/2 to 2/98 at t=2.4 mins and held for a further 0.4 mins (2.8 mins total), return to 98/2 over 0.05 mins and re-equilibrated for 0.15 mins (t=3 mins) at a flow-rate of 1.0 mL/min. • Detector: Waters Acquity UPLC PDA (UV-Vis detection) and Waters Acquity UPLC QDA (MS)
# (§4) The resulting plasmids containing the new mutants genes were transformed into recombinant E. coli strains for expression as described in Example 1, cultured and induced as described in Example 2, extracted and processed as described in Example 3 and tested for biocatalytic activity as described in Example 5 above.
# [2] = test system: R63W mutant of codon optimised P450SriC12; test: as above; assay type: biochemical, Streptomyces rimosus NRRL-2234; conditions: 0.1 mg/ml bosentan, 27° C., 16-20 hours
# Description: as §1, §2, §3, §4
# [3] = test system: P450SriC12-ferredoxinSriF05-ferredoxin reductaseSCF15A expressed in S. lividans HD002; test: Whole-cell biotransformation of ritonavir in 24-well block format; assay type: cell-based, Streptomyces rimosus NRRL-2234; conditions: for +16 Da (1.67 min) / +16 Da (1.72 min) / +16 Da (1.76 min) / Parent (1.90 min): ritonavir 100 mg/L
# Description: (§5) Approximately 10^8 cells of S. lividans HD000 and S. lividans […] inoculated separately into 50 mL of culture medium (containing 5 g/L glycerol; 20 g/L glucose; 5 g/L yeast extract peptone; 2 g/L meat extract; 5 g/L mycological peptone; 1 g/L ammonium phosphate dibasic; 3 g/I sodium chloride; 0.3 g/L magnesium sulphate heptahydrate and 3.5 g/L calcium carbonate, adjusted to pH 7.0 and sterilised at 115° C. for 15 minutes) in 250 mL baffled flasks and incubated shaking at 27° C., 200 rpm for 48 hours. In a 24-well micro-bioreactor block (EnzyScreen, Netherlands), 2.5 mL of S. lividans HD000 and S. lividans HD002 were dosed with ritonavir at a concentration of 100 mg/L. Ritonavir was formulated with 20% hydroxypropyl-p-cyclodextrin (prepared via 1 in 25 dilution of a stock solution of 25 mg ritonavir in 1 mL DMSO). Cultures were time-coursed daily after dosing to assess the production of the target metabolite hydroxy-ritonavir as in Example 5.
# (§6) Conversions of ritonavir improved with longer incubations with the drug.
# [4] = test system: S. lividans HD000 negative control; test: Whole-cell biotransformation of ritonavir in 24-well block format, empty-vector strain; assay type: cell-based, Streptomyces lividans; conditions: for +16 Da (1.67 min) / +16 Da (1.72 min) / +16 Da (1.76 min) / Parent (1.90 min): ritonavir 100 mg/L
# Description: As a negative control, an empty plJ12551 expression vector was introduced into S. lividans TK24 by triparental conjugation as described above and designated as S. lividans […].
# as §5, §6
# [5] = Concentration of cytochrome P450 in cell-free extract by carbon monoxide difference spectrum (Omura and Sato); conditions: mutant P450SriC12 expressed in E. coli BL21 (DE3)
# Description: Measurement is performed according to the method of Omura and Sato et al. (J Biol Chem, 239. 1964, 2370). That is to say, cytochrome P450 is analyzed quantitatively using the following formula, based on the difference in the absorbance of the reduced CO versus the reduced difference spectrum at 450 nm and 490 nm.
# Measurement of the concentration of cytochrome P450 were performed according to the method of Omura and Sato et al. (J Biol Chem, 239. 1964, 2370). Cytochrome P450 concentrations of cell-free extracts of induced E. coli BL21 (DE3) Rosetta2 & Tuner cells harbouring either pHD05-SriC01, pHD02-SriC12-SriF05, pHD05-SriC14-SriF06, pHD05-SriC20, pHD05-SriC22 or pHD05-SriC51-SriF08 are shown in Table 2. Carbon monoxide difference spectra for P450SriC01, P450SriC12, P450SriC14, P450SriC20, P450SriC22 and P450SriC51 are shown in FIGS. 9, 10, 11, 19, 20 & 21 respectively.
# The native and codon optimised P450sriC12 and ferredoxinsriF05 in pHD02-SriC12-SriF05 and pHD02-SriC12CO-SriF05CO respectively were introduced into E. coli BL21 (DE3). The recombinant strains were cultured and proteins were induced as in Example 2. The cell-free extract material was obtained as in Example 3 and carbon monoxide difference spectrums were measure to calculate the concentration of cytochrome P450.
# as §4, with “above. The carbon monoxide difference spectrum result of R63W mutant of codon optimised P450SriC12 is shown in FIG. 14 and the cytochrome P450 concentration of mutant P450SriC12 are shown in Table 5.” for “above.”
molecule,measurement,setting,value
COc1ccccc1Oc1c(NS(=O)(=O)c2ccc(C(C)(C)C)cc2)nc(-c2ncccn2)nc1OCCO [bosentan],yield of the O-demethyl-bosentan product,[1],3.3%
same,hydroxy-bosentan product,[2],no hydroxy-bosentan product was detected
same,yield of the O-demethyl-bosentan product,[2],63.2%
CC(C)c1nc(CN(C)C(=O)N[C@H](C(=O)N[C@@H](Cc2ccccc2)C[C@H](O)[C@H](Cc2ccccc2)NC(=O)OCc2cncs2)C(C)C)cs1 [ritonavir],+16 Da (1.67 min),[3]; sampling 24 hour,7.1%
same,+16 Da (1.72 min),[3]; sampling 24 hour,18.9%
same,+16 Da (1.76 min),[3]; sampling 24 hour,1.4%
same,Parent (1.90 min),[3]; sampling 24 hour,68.5%
same,+16 Da (1.67 min),[3]; sampling 48 hour,8.6%
same,+16 Da (1.72 min),[3]; sampling 48 hour,23.6%
same,+16 Da (1.76 min),[3]; sampling 48 hour,2.8%
same,Parent (1.90 min),[3]; sampling 48 hour,58.6%
same,+16 Da (1.67 min),[3]; sampling 120 hour,9.1%
same,+16 Da (1.72 min),[3]; sampling 120 hour,28.1%
same,+16 Da (1.76 min),[3]; sampling 120 hour,1.4%
same,Parent (1.90 min),[3]; sampling 120 hour,51.2%
same,hydroxylation of ritonavir (in words),[3]; whole-cell biotransformation,able to hydroxylate ritonavir
same,+16 Da (1.67 min),[4]; sampling 24 hour,0.0%
same,+16 Da (1.72 min),[4]; sampling 24 hour,0.0%
same,+16 Da (1.76 min),[4]; sampling 24 hour,0.0%
same,Parent (1.90 min),[4]; sampling 24 hour,100.0%
same,+16 Da (1.67 min),[4]; sampling 48 hour,0.0%
same,+16 Da (1.72 min),[4]; sampling 48 hour,0.0%
same,+16 Da (1.76 min),[4]; sampling 48 hour,0.0%
same,Parent (1.90 min),[4]; sampling 48 hour,100.0%
same,+16 Da (1.67 min),[4]; sampling 120 hour,0.0%
same,+16 Da (1.72 min),[4]; sampling 120 hour,0.0%
same,+16 Da (1.76 min),[4]; sampling 120 hour,0.0%
same,Parent (1.90 min),[4]; sampling 120 hour,100.0%
same,hydroxylation of ritonavir (in words),[4]; whole cells,unable to hydroxylate ritonavir
B1,P450 concentration,[5],27.6 µM
B2,P450 concentration,[5],22.4 µM
B3,P450 concentration,[5],19.9 µM
B4,P450 concentration,[5],17.6 µM
B5,P450 concentration,[5],6.2 µM
B6,P450 concentration,[5],14.1 µM

# Reference: patent US11891642B2, “Biocatalytic techniques” (HYPHA DISCOVERY LIMITED, priority 2018, dated 2024)
